In patent US12422427B2, “Compounds for treatment of diseases and methods of screening therefor” (Max-Planck-Gesellschaft zur Förderung der Wissenschaften …, priority 2018, dated 2025):

Tests used:
[1] = test system: HeLa cells expressing FUS GFP; assay: HeLa cell compound dose responses (FUS GFP, arsenate stress); assay type: cell-based
Experimental: Small dilution steps rather than concentration replicates were selected as it provides greater statistical power from a set number of samples. Final DMSO concentration was 0.08% in all samples, and each plate included at least 12 control wells with 0.08% DMSO. Cytoplasmic FUS droplet number and nuclear/cytoplasm partition of FUS were analysed using custom macros in ImageJ. Nuclei were identified by intensity thresholding of the blue fluorescence image following a 5 px Gaussian blur. Cytoplasmic FUS droplets by intensity thresholding of the green image following a 10 px weight 0.9 unsharp filter masked by the thresholded nuclei, and nuclear FUS droplets by intensity thresholding of the green image following a 5 px weight 0.9 unsharp filter and 10 px rolling ball background subtraction masked to only include thresholded nuclei. The ratio of cytoplasmic FUS drops to nuclei was taken as cytoplasmic FUS droplets per cell per field of view, and p, the ratio of partition of FUS to the nucleus and the cytoplasm, was derived from a=Vn/vt, the ratio of nuclear to total green signal per field of view, where p=a/(1−a). […] Six fields of view were captured and analysed per condition.

HeLa cells = assay: 15N lipoamide uptake by HeLa cells measured by NMR; assay type: in vitro ADME; conditions: for uptake of the lipoamide present in the medium: 100 μM, 1 h, 37° C., stressed or unstressed HeLa cells
Experimental: The concentration of lipoamide relative to protein required for an effect on condensate liquidity in vitro was higher than the EC50 on cells, on the order of 100 μM lipoamide with 1 μM FUS (FIGS. 1D-1E, FIGS. 5A-5E). In cells, FUS concentrations are high for a protein (low μM)^41 and the cellular EC50 was on the order of 10 μM (FIG. 2A, FIG. 3D). We also saw inverse effects of lipoamide on FUS-containing condensates in vitro (more, larger condensates) and in cells (fewer stress granules). To reconcile this difference and to understand the relevance of the effects in vitro in cells, we wanted to know the actual concentrations of compounds in cells. In principle, isotopic labelling allows direct monitoring of isotopically-labelled compounds even in complex environment through appropriate spectroscopy. To use this approach, ^15N-labelled lipoamide (FIG. 7A) was synthesised.
Uptake of ^15N lipoamide by cells from the medium was quantified by NMR following incubation of lipoamide at 37° C. for 1 h either in the absence or presence of HeLa cells (FIG. 7B). Cellular uptake was determined by calculating the difference between medium incubated with cells or without cells for combinations of either R-(+) or (±)-lipoamide and either unstressed or stressed cells (FIG. 7C). For one sample, stressed cells with R-(+)-lipoamide, we confirmed that strong signal from the cell fraction was consistent with uptake of a large proportion of lipoamide (FIG. 7C). Both R-(+) and ±-lipoamide measurements indicated uptake of 35±11% (n=3 and 2, respectively) of the lipoamide present in the medium. No significant difference was observed either for uptake of R-(+) compared to (±)-lipoamide or stressed compared to unstressed cells (FIG. 7D).
For analysis of ^15N lipoamide uptake by cells HeLa cells expressing FUS GFP were grown in 6 well plates to 10^6 cells/well in DMEM supplemented with 10% FCS. To simultaneously stress and treat cells, the medium was replaced with 0.6 ml medium supplemented with potassium arsenate and 100 μM ^15N racemic or R-(+)-lipoamide for 1 h at 37° C. High concentrations of compound were used to maximise the signal. […] Wells were prepared for all combinations of no compound (1% DMSO control), ^15N […] or ^15N R-(+)-lipoamide, with or without potassium arsenate and with or without cells. ^1H detected ^15N edited ^1H sensitivity enhanced HSQ was used to quantify ^15N lipoamide concentration (see Supplementary Information). Solvent, pH and temperature sensitivity of the primary amide proton chemical shifts were determined using dummy samples assembled from the appropriate solvent and added compounds.
^1H detected ^15N edited ^1H sensitivity enhanced HSQC NMR (referred to here as (^15N) ^1H) spectra were acquired on a narrow bore Varian solution state spectrometer operating with a fixed field strength of 14.1 T, equipped with a room-temperature probe.
The free induction decay was recorded for an acquisition time of 0.0624 and a sweep with of 8 kHz recorded over 1000 and a recovery delays of 1 s. […] The J coupling between the amide protons and the ^15N in H2O samples was determined to be 96 Hz, and so the transfer times of 1/4 J in the INEPT portions of the pulse sequence were set to 2.6 ms. […]

[2] = test system: FUS GFP localisation in stressed HeLa cells; assay: Ex vivo HeLa cell screen of FUS GFP localisation under arsenate stress; assay type: cell-based; conditions: 10 μM compound 1 h pre-treatment, then 1 h 1 mM potassium arsenate
Text: The inventors developed a cell-based screen using a HeLa cell line that stably expresses GFP-tagged FUS at near-endogenous levels. While not required for stress granule formation, FUS is a well-characterised protein with a domain structure typical of stress granule proteins. In the absence of cellular stress, FUS-GFP primarily localizes to the nucleus, where it is partially excluded from the nucleolus and localises to small puncta called paraspeckles (FIG. 1A). These are nuclear droplets implicated in retaining RNA in the nucleus for rapid stress response. Cells were pre-treated with 10 μM compound from a compound library for 1 h, then the cells were stressed with 1 mM potassium arsenate (still in the presence of compound) (FIG. 1B) and monitored FUS localization to stress granules. Arsenate disrupts antioxidant responses by reacting with thiol groups, blocks the tricarboxylic acid (TCA) cycle by reacting with the thiols in vital lipoyl moieties and causes general oxidative damage. In untreated stressed cells, FUS is partly exported to the cytoplasm where, in combination with other proteins and mRNA, it phase separates to form liquid-like stress granules surrounded by cytoplasm depleted in FUS (FIG. 1A).
Many compounds affected stress granule formation. Multi-parameter image analysis, including cytoplasmic puncta number, nuclear puncta number, and nuclear/cytoplasm partition, was used to rank compounds by strength of effect on FUS localisation in stressed cells (FIG. 1C). […] These were the polysome stabilising compound emetine, which prevents release of mRNA, and the heavy metal chelating compound dimercaprol (which should sequester the stressor). Edaravone, thought to be an antioxidant and used as an ALS therapeutic in Japan and the US, had no effect on FUS localization in arsenate-stressed cells.
The effect of compounds on FUS GFP localisation in stressed HeLa cells was screened in 384 well format. 4000 cells were seeded per well and incubated for 24 h, after which the medium was replaced with 40 μl fresh medium and compound added to a final concentration of 10 μM by acoustic dispensing (Labcyte Echo 550). The final concentration of DMSO in all samples was 0.1%. […]
For the initial screen FUS GFP signal was analysed using KNIME. […] Particle number and sum area, granularity at 9, 10 & 11 px (cytoplasm) or 1, 5, 6, 7, 8 & 9 px (nucleus) scale, texture at 10 px scale and integrated signal intensity were measured for the nucleus and cytoplasm in the green (FUS GFP) channel. Z scores (z=(x−μ)/σ where x is the observed value, μ the control mean and σ the control standard deviation) relative to the DMSO treated control wells on each plate were calculated for each of the parameters, and combined into the Mahalanobis distance.

O=C(O)CCCCC(S)CCS (racemic) [(±)-dihydrolipoic acid, 6,8-dimercaptooctanoic acid]
EC50 reducing stress granule number, compared among compounds ([1]; 1 h 1 mM arsenate stress): comparable EC50

[15NH2]C(=O)CCCCC1CCSS1 (racemic) [±-lipoamide, ^15N (±)-Lipoamide]
uptake of the lipoamide present in the medium (HeLa cells): 35±11%

SCCCS [1,3-propanedithol, 1,3-propanedithiol, reference compound]
effect on stress granule number ([1]; up to 100 μM): no effect

CC1=NN(c2ccccc2)C(=O)C1 [Edaravone]
effect on stress granules / FUS localisation in stressed cells [2]: no effect

[15NH2]C(=O)CCCC[C@@H]1CCSS1 [R-(+)-lipoamide, ^15N R-(+)-Lipoamide]
uptake of the lipoamide present in the medium (HeLa cells): 35±11%

NC(=O)CCCCC1CCSS1 (stereo not drawn) [^15N lipoamide]
average intracellular concentration (HeLa cells; calculated from percentage uptake, number of cells and their volume): 5.0 ± 1.6 mM

OCC(S)CS (stereo not drawn) [dimercaprol]
effect on stress granules / FUS localisation in stressed cells [2]: reduction of stress granules

CC[C@H]1CN2CCc3cc(OC)c(OC)cc3[C@@H]2C[C@@H]1C[C@H]1NCCc2cc(OC)c(OC)cc21 [emetine]
effect on stress granules / FUS localisation in stressed cells [2]: reduction of stress granules

CC1=CC(=O)c2ccccc2C1=O [menadione]
effect on stress granules / FUS localisation in stressed cells [2]: did not reduce stress granule number
